In US7060822B1, “2-pyrazolin-5-ones” (Abbott GmbH & Co. KG, priority 1999, dated 2006):

| SMILES | melting point |
| --- | --- |
| Cc1[nH]c(C=C2C(=O)NN=C2c2cnccn2)cc1CN(C)C [Example 170, 4-[(5-Methyl-4-dimethylaminomethylpyrrol-2-yl)methylene]-3-pyrazinyl-2-pyrazolin-5-one] | 193 to 195 °C |
| Cc1[nH]c(C=C2C(=O)NN=C2C2CC2)c(C)c1CN(C)C [Example 100, 3-Cyclopropyl-4-[(3,5-dimethyl-4-dimethylaminomethylpyrrol-2-yl)methylene]-2-pyrazolin-5-one] | 176 to 178 °C |
| O=C1NN=C(CCCc2ccccc2)C1=Cc1c[nH]c2ccccc12 [Example 234, 4-[(Indol-3-yl)methylene]-3-(3-phenylpropyl)-2-pyrazolin-5-one] | 218 to 220 °C |
| CCc1c(C)[nH]c(C=C2C(=O)NN=C2CCc2ccc(O)cc2)c1C [Example 52, 4-[(3,5-Dimethyl-4-ethylpyrrol-2-yl)methylene]-3-(4-hydroxyphenylethyl)-2-pyrazolin-5-one] | 260 to 262 °C |
| CCc1c(C)[nH]c(C=C2C(=O)NN=C2CCc2ccc(N)cc2)c1C [Example 45, 3-(4-Aminophenylethyl)-4-[(3,5-dimethyl-4-ethylpyrrol-2-yl)methylene]-2-pyrazolin-5-one] | 183 to 185 °C |
| CCN(CC)CC(=O)c1c(C)[nH]c(C=C2C(=O)NN=C2c2cnccn2)c1C [Example 196, 4-[(4-Diethylaminoacetyl-3,5-dimethylpyrrol-2-yl)methylene]-3-pyrazinyl-2-pyrazolin-5-one] | 199 °C |
| O=C1NN=C(CCc2ccccc2)C1=Cc1cn(CCCCO)c2ccccc12 [Example 239, 4-{[1-(4-Hydroxybutyl)indol-3-yl]methylene}-3-phenylethyl-2-pyrazolin-5-one] | 205 to 207 °C |
| Cc1[nH]c(C=C2C(=O)NN=C2c2cnccn2)c(C)c1CN.O=C(O)/C=C\C(=O)O [Example 179, 4-[(4-Aminomethyl-3,5-dimethylpyrrol-2-yl)methylene]-3-pyrazinyl-2-pyrazolin-5-one maleate] | 205 to 208 °C |
| Cc1cc(C)c(C=C2C(=O)NN=C2c2cccs2)[nH]1 [Example 129, 4-[(3,5-dimethylpyrrol-2-yl)methylene]-3-(2-thienyl)-2-pyrazolin-5-one] | 235 to 237 °C |
| O=C1NN=C(C2CC2)C1=Cc1ccc(C(=O)O)[nH]1 [Example 110, 4-[(5-Carboxypyrrol-2-yl)methylene]-3-cyclopropyl-2-pyrazolin-5-one] | 220 °C (dec.) |
| Cc1[nH]c(C=C2C(=O)NN=C2OC(C)C)c(C)c1C(=O)OCCN(C)C [Example 88, 4-{[4-(2-Dimethylaminoethoxycarbonyl)-3,5-dimethylpyrrol-2-yl]methylene}-3-isopropoxy-2-pyrazolin-5-one] | 165 to 167 °C |
| CCOC1=NNC(=O)C1=Cc1[nH]c(C)c(C(=O)O)c1C [Example 151, 4-[(4-Carboxy-3,5-dimethylpyrrol-2-yl)methylene]-3-ethoxy-2-pyrazolin-5-one] | 310 to 312 °C |
| CCOC1=NNC(=O)C1=Cc1[nH]cc(C)c1CCC(=O)O [Example 157, 4-{[3-(2-Carboxyethyl)-4-methylpyrrol-2-yl]methylene}-3-ethoxy-2-pyrazolin-5-one] | 255 to 257 °C |
| CCOC(=O)c1c(C)[nH]c(C=C2C(=O)NN=C2OCC)c1C [Example 158, 4-[(3,5-Dimethyl-4-ethoxycarbonylpyrrol-2-yl)methylene]-3-ethoxy-2-pyrazolin-5-one] | 232 to 234 °C |
| CC1CC1C1=NNC(=O)C1=Cc1ccc[nH]1 (stereo not shown) [Example 63, 3-(2-Methylcyclopropyl)-4-[(pyrrol-2-yl)methylene]-2-pyrazolin-5-one] | 132 to 133 °C |
| COc1ccc(CC2=NNC(=O)C2=Cc2c[nH]c3ccccc23)cc1 [Example 215, 4-[(Indol-3-yl)methylene]-3-(4-methoxybenzyl)-2-pyrazolin-5-one] | 265 to 270 °C |
| COc1ccc(CCC2=NNC(=O)C2=Cc2ccc[nH]2)cc1 [Example 23, 3-(4-Methoxyphenylethyl)-4-[(pyrrol-2-yl)methylene]-2-pyrazolin-5-one] | 137 to 139 °C |
| Cc1ccc(OCC2=NNC(=O)C2=Cc2ccc[nH]2)cc1 [Example 9, 3-(4-Methylphenyloxymethyl)-4-[(pyrrol-2-yl)methylene]-2-pyrazolin-5-one] | 207 to 210 °C |
| CCOC(=O)c1c[nH]c(C=C2C(=O)NN=C2C2CC2)c1-c1ccccc1 [Example 140, 3-Cyclopropyl-4-[(4-ethoxycarbonyl-3-phenylpyrrol-2-yl)methylene]-2-pyrazolin-5-one] | 218 to 220 °C |
| O=C1NN=C(C2CC2)C1=Cc1cc(Br)c[nH]1 [Example 115, 4-[(4-Bromopyrrol-2-yl)methylene]-3-cyclopropyl-2-pyrazolin-5-one] | 210 °C (dec.) |

Continued, values first:

| melting point | SMILES |
| --- | --- |
| 271 to 272 °C | O=C1NN=C(CCc2ccc(Cl)cc2)C1=Cc1c[nH]c2ccccc12 [Example 300, 3-(4-Chlorophenylethyl)-4-[(indol-3-yl)methylene]-2-pyrazolin-5-one] |
| 259 to 260 °C | COC(=O)c1ccc(CCC2=NNC(=O)C2=Cc2c[nH]c3ccccc23)cc1 [Example 249, 4-[(Indol-3-yl)methylene]-3-(4-methoxycarbonylphenylethyl)-2-pyrazolin-5-one] |
| 270 to 272 °C | O=C1NN=C(CCc2ccc(O)cc2)C1=Cc1c[nH]c2ncccc12 [Example 341, 4-[(7-Azaindol-3-yl)methylene]-3-(4-hydroxyphenylethyl)-2-pyrazolin-5-one] |
| 241 to 243 °C | Cc1c(C=C2C(=O)NN=C2OC(C)C)[nH]c2ccccc12 [Example 322, 3-Isopropoxy-4-[(3-methylindol-2-yl)methylene]-2-pyrazolin-5-one] |
| 274 to 277 °C | O=C1NN=C(Cc2ccccc2)C1=Cc1c[nH]c2ncccc12 [Example 333, 4-[(7-Azaindol-3-yl)methylene]-3-benzyl-2-pyrazolin-5-one] |
| 317 to 319 °C | O=C1NN=C(CCc2ccccc2)C1=Cc1c[nH]c2ncccc12 [Example 357, 4-[(7-Azaindol-3-yl)methylene]-3-phenylethyl-2-pyrazolin-5-one] |
| 238 to 239 °C | COc1ccc2c(c1)c(C=C1C(=O)NN=C1OC(C)C)cn2C [Example 295, 3-Isopropoxy-4-[(5-methoxy-1-methylindol-3-yl)methylene]-2-pyrazolin-5-one] |
| 300 °C (dec.) | CC(C)C1=NNC(=O)C1=Cc1c[nH]c2ncccc12 [Example 343, 4-[(7-Azaindol-3-yl)methylene]-3-isopropyl-2-pyrazolin-5-one] |
| 241 to 242 °C | CC(C)C1=NN(C)C(=O)C1=Cc1c[nH]c2ccccc12 [Example 368, 4[(Indol-3-yl)methylene]-3-isopropyl-1-methyl-2-pyrazolin-5-one] |
| > 300 °C | O=C1NN=C(c2nc3ccccc3s2)C1=Cc1c[nH]c2ccccc12 [Example 268, 3-(Benzothiazol-2-yl)-4-[(indol-3-yl)methylene]-2-pyrazolin-5-one] |
| 300 to 305 °C | O=C1NN=C(C2CC2)C1=Cc1c[nH]c2ccccc12 [Example 256, 3-Cyclopropyl-4-[(indol-3-yl)methylene]-2-pyrazolin-5-one] |
